Test results taken from PubChem BioAssay AID1963870 (Molecular Pharmacology Branch, DTP, NCI, 2024).

System: 292921-168-R-J2-PDC KRAS tumor spheroid viability
Test: Anticancer human tumor 292921-168-R-J2-PDC patient-derived pancreatic carcinoma cell line growth inhibition [KRAS2]
Details: spheroids with HUVEC and MSC; for viability, T/C: stronger effect = lower value; active means viability on the fitted dose curve at most 10% of control; inactive means the rest
Summary of the method: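 Combination screen of spheroid viability in tumor-cell co-cultures with endothelial (HUVEC) and mesenchymal stem cell stroma. Each agent was tested in half-log dilutions, topping at clinical Cmax or at 10 microM without a known Cmax.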

[1] = curve of first compound, second compound 0.1 µM
[2] = curve of first compound, second compound 0.316 µM
[3] = curve of first compound, second compound 1 µM
[4] = curve of first compound, second compound 3.16 µM
[5] = second compound 0.1 µM, first compound 0.0316 µM
[6] = second compound 0.1 µM, first compound 0.1 µM
[7] = second compound 0.1 µM, first compound 0.316 µM
[8] = second compound 0.1 µM, first compound 1 µM
[9] = second compound 0.1 µM, first compound 3.16 µM
[10] = second compound 0.316 µM, first compound 0.0316 µM
[11] = second compound 0.316 µM, first compound 0.1 µM
[12] = second compound 0.316 µM, first compound 0.316 µM
[13] = second compound 0.316 µM, first compound 1 µM
[14] = second compound 0.316 µM, first compound 3.16 µM
[15] = second compound 1 µM, first compound 0.0316 µM
[16] = second compound 1 µM, first compound 0.1 µM
[17] = second compound 1 µM, first compound 0.316 µM
[18] = second compound 1 µM, first compound 1 µM
[19] = second compound 1 µM, first compound 3.16 µM
[20] = second compound 3.16 µM, first compound 0.0316 µM
[21] = second compound 3.16 µM, first compound 0.1 µM
[22] = second compound 3.16 µM, first compound 0.316 µM
[23] = second compound 3.16 µM, first compound 1 µM
[24] = second compound 3.16 µM, first compound 3.16 µM
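Further: drug exposure lasted seven days after spheroids formed for three days.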
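Wherever viability, T/C is given: percent of DMSO vehicle control viability which is 100%.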

CC(=O)OC12COC1CC(O)C1(C)C(=O)C(O)C3=C(C)C(OC(=O)C(O)C(NC(=O)OC(C)(C)C)c4ccccc4)CC(O)(C(OC(=O)c4ccccc4)C21)C3(C)C (configuration not stated) + C=CC(=O)N1CCN(c2nc(OCC3CCCN3C)nc3c2CCN(c2cccc4cccc(C)c24)C3)CC1CC#N
inactive: viability, T/C (second compound 0.0316 µM, first compound 0.01 µM) 12.8% | viability, T/C (second compound 0.0316 µM, first compound 0.0316 µM) 14.4% | viability, T/C (second compound 0.0316 µM, first compound 0.1 µM) 10.5% | viability, T/C (second compound 0.0316 µM, first compound 0.316 µM) 11.3% | viability, T/C (second compound 0.0316 µM, first compound 1 µM) 13.3% | viability, T/C (second compound 0.0316 µM, first compound 3.16 µM) 17.1% | viability, T/C (second compound 0.1 µM, first compound 0.01 µM) 13.8% | viability, T/C [5] 12% | viability, T/C [6] 9.84% | viability, T/C [7] 9.08% | viability, T/C [8] 12.5% | viability, T/C [9] 14.9% | viability, T/C (second compound 0.316 µM, first compound 0.01 µM) 11.8% | viability, T/C [10] 9.96% | viability, T/C [11] 8.56% | viability, T/C [12] 9.75% | viability, T/C [13] 15.3% | viability, T/C [14] 14.3% | viability, T/C (second compound 3.16 µM, first compound 0.01 µM) 15.1% | viability, T/C [20] 13.7% | viability, T/C [21] 11.1% | viability, T/C [22] 11.6% | viability, T/C [23] 14% | viability, T/C [24] 18.2%
< 10 nM: IC50 (curve of first compound, second compound 0.0316 µM) | IC50 [1] | IC50 [2] | IC50 [3] | IC50 [4]
active: viability, T/C (second compound 1 µM, first compound 0.01 µM) 8.08% | viability, T/C [15] 6.89% | viability, T/C [16] 6.48% | viability, T/C [17] 7.06% | viability, T/C [18] 6.74% | viability, T/C [19] 7.91%

CC(=O)OC12COC1CC(O)C1(C)C(=O)C(O)C3=C(C)C(OC(=O)C(O)C(NC(=O)OC(C)(C)C)c4ccccc4)CC(O)(C(OC(=O)c4ccccc4)C21)C3(C)C (configuration not stated)
inactive: viability, T/C (compound 0.01 µM) 14.3% [middle of 5 runs] | viability, T/C (compound 0.0316 µM) 14.3% [middle of 5 runs] | viability, T/C (compound 0.1 µM) 12.4% [middle of 5 runs] | viability, T/C (compound 0.316 µM) 12.8% [middle of 5 runs] | viability, T/C (compound 1 µM) 13.8% [middle of 5 runs] | viability, T/C (compound 3.16 µM) 17.6% [middle of 5 runs]
< 10 nM: IC50 (curve of compound)

Cn1nccc1Nc1nccc(-c2cc3c(s2)C(C)(C)N(CCN2CCOCC2)C3=O)n1 + C=CC(=O)N1CCN(c2nc(=O)n(-c3c(C)ccnc3C(C)C)c3nc(-c4c(O)cccc4F)c(F)cc23)C(C)C1
77.7 nM: IC50 [4]
< 31.6 nM: IC50 (curve of first compound, second compound 10 µM)
inactive: viability, T/C [5] 95.1% | viability, T/C [6] 55.6% | viability, T/C [7] 23.7% | viability, T/C [8] 12.3% | viability, T/C [9] 11.2% | viability, T/C (second compound 0.1 µM, first compound 10 µM) 11.1% | viability, T/C [10] 107% | viability, T/C [11] 58.5% | viability, T/C [12] 21.9% | viability, T/C [13] 13.7% | viability, T/C [14] 12.4% | viability, T/C (second compound 0.316 µM, first compound 10 µM) 12.6% | viability, T/C [15] 115% | viability, T/C [16] 52.7% | viability, T/C [17] 22.5% | viability, T/C [18] 15.2% | viability, T/C [19] 12.5% | viability, T/C (second compound 1 µM, first compound 10 µM) 14.4% | viability, T/C [20] 76.6% | viability, T/C [21] 42.5% | viability, T/C [22] 19.2% | viability, T/C [23] 14.3% | viability, T/C [24] 13.8% | viability, T/C (second compound 3.16 µM, first compound 10 µM) 17.2% | viability, T/C (second compound 10 µM, first compound 0.0316 µM) 25.2% | viability, T/C (second compound 10 µM, first compound 0.1 µM) 18% | viability, T/C (second compound 10 µM, first compound 0.316 µM) 14.6% | viability, T/C (second compound 10 µM, first compound 1 µM) 14.4% | viability, T/C (second compound 10 µM, first compound 3.16 µM) 15.1% | viability, T/C (second compound 10 µM, first compound 10 µM) 19.5%
122 nM: IC50 [1]
111 nM: IC50 [3]
131 nM: IC50 [2]
